Source: ChEMBL document CHEMBL1137496, “Inactivation of soybean sterol 24-C-methyltransferase by elongated sterol side chains at C26” (Bioorg Med Chem Lett, 2007)

T1: S-adenosyl-L-methionine:delta24-sterol-C-methyltransferase (Glycine max, UniProt Q43445)
T1 sequence (Q43445 whole entry): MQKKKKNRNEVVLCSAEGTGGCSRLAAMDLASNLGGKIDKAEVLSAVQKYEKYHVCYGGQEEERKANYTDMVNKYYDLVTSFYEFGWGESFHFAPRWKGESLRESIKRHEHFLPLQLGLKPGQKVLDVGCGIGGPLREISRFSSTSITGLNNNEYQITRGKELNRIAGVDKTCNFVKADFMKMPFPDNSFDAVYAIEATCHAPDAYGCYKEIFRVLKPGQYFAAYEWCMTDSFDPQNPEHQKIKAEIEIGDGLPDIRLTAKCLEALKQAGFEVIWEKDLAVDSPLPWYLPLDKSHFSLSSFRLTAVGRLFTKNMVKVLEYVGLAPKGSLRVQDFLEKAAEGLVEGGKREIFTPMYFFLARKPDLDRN

T2: S-adenosyl-L-methionine:delta24-sterol-C-methyltransferase (Glycine max) (UniProt Q43445)
T2 sequence (whole entry): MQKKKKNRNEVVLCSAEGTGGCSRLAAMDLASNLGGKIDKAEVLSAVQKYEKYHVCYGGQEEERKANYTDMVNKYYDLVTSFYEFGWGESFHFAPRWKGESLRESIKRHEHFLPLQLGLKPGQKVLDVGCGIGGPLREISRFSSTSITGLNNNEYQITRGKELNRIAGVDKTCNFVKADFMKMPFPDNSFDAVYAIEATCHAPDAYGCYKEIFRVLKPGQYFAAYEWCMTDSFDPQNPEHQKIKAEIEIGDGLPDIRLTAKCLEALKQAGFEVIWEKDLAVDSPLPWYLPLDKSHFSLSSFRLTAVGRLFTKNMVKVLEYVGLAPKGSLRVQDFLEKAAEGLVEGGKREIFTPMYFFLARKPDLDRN

B1: S-adenosyl-L-methionine:delta24-sterol-C-methyltransferase (Glycine max), Q43445 (protein)
chain: MQKKKKNRNEVVLCSAEGTGGCSRLAAMDLASNLGGKIDKAEVLSAVQKYEKYHVCYGGQEEERKANYTDMVNKYYDLVTSFYEFGWGESFHFAPRWKGESLRESIKRHEHFLPLQLGLKPGQKVLDVGCGIGGPLREISRFSSTSITGLNNNEYQITRGKELNRIAGVDKTCNFVKADFMKMPFPDNSFDAVYAIEATCHAPDAYGCYKEIFRVLKPGQYFAAYEWCMTDSFDPQNPEHQKIKAEIEIGDGLPDIRLTAKCLEALKQAGFEVIWEKDLAVDSPLPWYLPLDKSHFSLSSFRLTAVGRLFTKNMVKVLEYVGLAPKGSLRVQDFLEKAAEGLVEGGKREIFTPMYFFLARKPDLDRN

Assays:
[1] = molecular target: T1, S-adenosyl-L-methionine:delta24-sterol-C-methyltransferase; test: (§1) Inhibition of soybean recombinant SMT expressed in Escherichia coli
[2] = molecular target: T2, S-adenosyl-L-methionine:delta24-sterol-C-methyltransferase (Glycine max); test: as §1
[3] = molecular target: T2, S-adenosyl-L-methionine:delta24-sterol-C-methyltransferase (Glycine max); test: Ratio of Kcat to Kinact for soybean recombinant SMT expressed in Escherichia coli
[4] = molecular target: T2, S-adenosyl-L-methionine:delta24-sterol-C-methyltransferase (Glycine max); test: Inhibition of soybean recombinant SMT expressed in Escherichia coli assessed as C-methylation in presence of 50 uM cycloartenol substrate; set-up: scale not given: the % may be the effect or the level left
[5] = molecular target: T2, S-adenosyl-L-methionine:delta24-sterol-C-methyltransferase (Glycine max); test: Inhibition of soybean recombinant SMT expressed in Escherichia coli assessed as C-methylation in presence of 100 uM cycloartenol substrate; set-up: scale not given: the % may be the effect or the level left
[6] = substrate: C#C/C(C)=C/CCC(C)[C@H]1CC[C@@]2(C)[C@@H]3CC[C@H]4C(C)(C)[C@@H](O)CCC45CC35CC[C@]12C; test: (§2) Activity of soybean recombinant SMT expressed in Escherichia coli; conditions: Glycine max
[7] = substrate: C=C/C(C)=C/CCC(C)[C@H]1CC[C@@]2(C)[C@@H]3CC[C@H]4C(C)(C)[C@@H](O)CCC45CC35CC[C@]12C; test: as §2; conditions: Glycine max

Molecule | Kinact [2] [min⁻¹] | Ratio [3] | Ki [1] [µM] | also measured
C#C/C(C)=C/CCC(C)[C@H]1CC[C@@]2(C)[C@@H]3CC[C@H]4C(C)(C)[C@@H](O)CCC45CC35CC[C@]12C (stereo partly specified) | 0.06 | 0.001 |  | IC50 [1]: 67 µM
C=C/C(C)=C/CCC(C)[C@H]1CC[C@@]2(C)[C@@H]3CC[C@H]4C(C)(C)[C@@H](O)CCC45CC35CC[C@]12C (stereo partly specified) | 0.24 | 0.001 | 47 | Activity [4]: 25%; Activity [5]: 45%
CC(C)SCC[C@@H](C)[C@H]1CC[C@@]2(C)[C@@H]3CC[C@H]4C(C)(C)[C@@H](O)CCC45CC35CC[C@]12C (stereo partly specified) | 0.3 |  | 2 | 
CC(C)=CCC[C@@H](C)[C@H]1CC[C@@]2(C)[C@@H]3CC[C@H]4C(C)(C)[C@@H](O)CCC45CC35CC[C@]12C (stereo partly specified) | 0.29 |  | 42 | 
B1 |  |  |  | Km [6]: 2 µM; kcat [6]: 5e-05 min⁻¹; Km [7]: 5 µM; kcat [7]: 0.0003 min⁻¹
